In PMC7738871, “Covalent modification of Keap1 at Cys77 and Cys434 by pubescenoside a suppresses oxidative stress-induced NLRP3 inflammasome activation in myocardial ischemia-reperfusion injury” (Theranostics, 2021):

How the values were obtained:
Keap1 WT = molecular target: T1, Keap1 WT (Homo sapiens, UniProt Q14145); experiment: ITC titration of PBA with Keap1-WT; type: binding; conditions: 25 ℃
T1 construct: His (N); made in house; host or cells: E. coli BL21 (DE3)
Experimental: The Keap1 was amplified by PCR using a human cDNA library, and was subcloned into the vector pET28-TEV, which contained one tobacco etch virus (TEV) protease cleavage site at the upstream multiple cloning site. The protein was expressed in E. coli BL21 (DE3) cells and incubated at 37 °C until the OD600 value reached 0.6, using 0.2 mM isopropyl β-D-1-thiogalactopyranoside (IPTG) overnight induction at 18 °C. The cells were isolated by centrifugation, resuspended in ice-cold lysis buffer and lysed by cryogenic overpressure cell breaker at 1,200 psi. The lysates were centrifuged for 60 min at 14,000 rpm to obtain the supernatant. Gravity flow purification of Keap1 protein was obtained at room temperature using 1 mL of Ni-NTA and eluted in buffer containing 250 mM imidazole, followed by 1 mL of HiTrap QHP for the second step purification. The final protein was purified and validated by Superdex 200 10/300GL resin.
Isothermal calorimetry (ITC) titration experiments were performed at 25 °C. WT Keap1, Keap1 mutants and PBA were dissolved in binding buffer (40 mM Tris-HCl pH 8.0, 250 mM NaCl). In a typical experiment, 60 μL of PBA (1 mM) was injected 19 times at 2-min intervals from a stirring syringe into the sample cell containing 300 μL of WT protein or mutants (30 μM). The first injection was 0.4 μL of PBA, and the subsequent 18 injections were 2 μL each time. The site-binding models were determined by using MicroCal Origin software.

[1] = tested on: primary neonatal mouse cardiomyocytes; experiment: MTT cytotoxicity, primary cardiomyocytes; type: cell-based; conditions: under 240 μM, 48 h
Experimental: The heart was removed from the neonatal C57BL/6 mice and cut into 1 mm^3 pieces in ice […] buffer. The tissues were digested with the mixture of 0.125% trypsin (Gibco, 15090-046) and 0.1% type II collagenase (Gibco, 17101-015) 6 min at 37 °C for three times until the tissues were completely digested. The cells were harvested and seeded in a dish. After 90 min of incubation, the cell culture medium was collected and centrifuged. The centrifuged cardiomyocytes were harvested, seeded on 0.1 % gelatin-coated culture plates with DMEM containing 10% FBS and […] Brdu, and incubated in a 37°C incubator.
Cell viability was determined by MTT assays. PBA was prepared to a stock solution dissolved in dimethyl sulfoxide (DMSO). RAW264.7, H9c2 cells, primary mouse cardiomyocytes were treated with different doses of PBA, and DMSO only as control for 48 h for the toxicity. In addition, H9c2 cells or primary mouse cardiomyocytes were treated with the indicated doses of PBA, diazoxide as positive control, DMSO only as control, then cultured with or without OGD/R treatment. At the end of the experiments, MTT was added into each well at the concentration of 0.5 mg/ml, and incubated at 37 °C for 4 h. […] And the solution was measured at the absorbance of 490 nm by a spectrophotometer (Thermo Fisher Scientific, MA, USA). […]

NLRP3 inflammasome = experiment: OGD/R-induced NLRP3 inflammasome activation in H9c2; type: cell-based, rat; conditions: H9c2, OGD 6 h, reperfusion 18 h, dose-dependent
Experimental: For OGD/R treatment, H9c2 cells were washed twice with phosphate buffered saline (PBS). The medium was changed to glucose and serum free DMEM, and H9c2 cells were incubated in an incubator with 95% N2 and 5% CO2 at 37 °C. After 6 h, the medium was replaced with DMEM containing 10% FBS and 1% PS. Then H9c2 cells were returned to a normal incubator with 5% CO2 balanced with air at 37 °C for the indicated time.
Total protein was isolated from H9c2 cells, primary mouse cardiomyocytes, RAW264.7 cells and heart tissue using 1X RIPA buffer containing phosphatase and proteinase inhibitors at 4 °C. After measurement of the concentration, the cell lysates were separated by sodium dodecyl sulphate polyacrylamide gel electrophoresis (SDS-PAGE) and transferred to polyvinylidene fluoride (PVDF) membranes. […] After the membranes was washed by TBST buffer for three times, they were incubated with horseradish peroxidase (HRP)-conjugated secondary mouse or rabbit antibodies (1:3,000 dilution) at room temperature (RT) for 1.5 h and then detected by SuperEnhanced chemiluminescence (ECL) reaction reagents (GBCBIO Technologies Inc., Guangzhou, Guangdong, China). […] After letting the membranes stand for 1-2 min, the bands of the respective proteins were detected with the exposure time of 10 ~60 s.

[2] = tested on: primary mouse cardiomyocytes transfected with C77S and C434S-Keap1; experiment: OGD/R viability in Keap1-mutant-transfected primary cardiomyocytes; type: cell-based; conditions: Cys77S and Cys434S-Keap1 mutant vectors, MTT
Experimental: Figure 6 PBA suppresses Keap1-mediated ubiquitination of Nrf2 by disrupting the interaction between Cul3 and Keap1. (A and B) PBA suppressed Nrf2 ubiquitination in a Keap1-Cys77 and C434-dependent manner. First, 293T cells were transfected with WT-Keap1 or C77S and C434S-Keap1, Myc-Nrf2, and Ub plasmids for 24 h and treated with 30 μM PBA. The cell lysates were immunoprecipitated using anti-Myc beads, and the ubiquitination level was evaluated using the anti-Ub antibody. (C and D) PBA induced the dissociation of the Nrf2-Keap1 complex. Then, 293T cells were cotransfected with WT-Keap1 and Flag-Nrf2 plasmids for 24 h and treated with 30 μM PBA for 12 h. The cell lysates were immunoprecipitated with the anti-Flag antibody, and the level of Nrf2 was assessed using the anti-Nrf2 antibody. (E and F) PBA disrupted the interaction between Cul3 and Keap1. […] The cell lysates were immunoprecipitated with the anti-Flag antibody, and the level of Cul3 was measured using the anti-Cul3 antibody. #p < 0.05, ##p < 0.01, ###p < 0.001, the control vs DMSO; *p < 0.05,**p < 0.01, ***p < 0.001, PBA or tBHQ vs DMSO. […] Cell viability was measured by MTT assays. #p < 0.05, ###p < 0.001, the control vs OGD/R; **p < 0.01, ***p < 0.001, OGD/R+PBA vs OGD/R.
Cell viability was determined by MTT assays. […] And the solution was measured at the absorbance of 490 nm by a spectrophotometer (Thermo Fisher Scientific, MA, USA). […]

T1 sequence (Q14145 whole entry): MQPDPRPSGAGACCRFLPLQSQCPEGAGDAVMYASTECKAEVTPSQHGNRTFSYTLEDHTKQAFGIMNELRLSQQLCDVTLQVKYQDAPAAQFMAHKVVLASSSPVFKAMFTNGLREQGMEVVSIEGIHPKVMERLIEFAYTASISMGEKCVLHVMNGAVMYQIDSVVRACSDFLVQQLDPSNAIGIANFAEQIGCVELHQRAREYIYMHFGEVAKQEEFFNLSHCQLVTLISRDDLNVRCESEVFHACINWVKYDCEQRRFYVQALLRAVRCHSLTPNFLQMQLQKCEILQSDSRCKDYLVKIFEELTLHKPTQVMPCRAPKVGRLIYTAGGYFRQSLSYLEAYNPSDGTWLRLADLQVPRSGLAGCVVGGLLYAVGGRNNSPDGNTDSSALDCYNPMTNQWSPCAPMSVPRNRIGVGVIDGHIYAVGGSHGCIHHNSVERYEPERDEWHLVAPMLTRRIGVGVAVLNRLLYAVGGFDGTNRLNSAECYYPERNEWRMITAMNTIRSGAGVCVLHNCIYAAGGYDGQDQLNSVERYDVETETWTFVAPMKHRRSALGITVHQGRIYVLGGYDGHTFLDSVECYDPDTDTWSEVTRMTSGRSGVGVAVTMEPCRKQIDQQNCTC

Kd (Keap1 WT): 2610 nM | T△S (Keap1 WT): 4.31 ± 0.00 kcal/mol | △G (Keap1 WT): -7.62 ± 0.00 kcal/mol | △H (Keap1 WT): -3.31 ± 0.199 kcal/mol
Compound: C=C(COC(=O)C=Cc1ccc(O)c(O)c1)C(O)COC1OC(CO)C(O)C(O)C1O (stereo not shown) [PBA, pubescenoside A]
cell toxicity (MTT) [1]: did not exhibit any cell toxicity | OGD/R-induced inflammasome activation (NLRP3, cleaved-caspase1, mature IL-1β) (NLRP3 inflammasome): substantially inhibited | protective effect against OGD/R injury with mutant Keap1 [2]: blocked the protective effect
